Test results from ChEMBL document CHEMBL1201861, “Genomics of Drug Sensitity in Cancer screening data, Wellcome Trust Sanger Institute”.

How the values were obtained:
Format in all cases: functional, cell-based
[1] = test system: COLO-792; assay: cells; conditions: Homo sapiens
Description: SANGER: Inhibition of human COLO-792 cell growth in a cell viability assay.

[2] = test system: DG-75; assay: cells; conditions: Homo sapiens;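 also: growth inhibition of DG-75 cells, read out with a cell viability assay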
Description: SANGER: Inhibition of human DG-75 cell growth in a cell viability assay.

[3] = test system: DU-145; assay: cells; conditions: Homo sapiens
Description: SANGER: Inhibition of human DU-145 cell growth in a cell viability assay.

[4] = test system: Detroit 562; assay: cells; conditions: Homo sapiens;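 also: growth inhibition of human Detroit 562 cells, read out by a cell viability assay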
Description: SANGER: Inhibition of human Detroit562 cell growth in a cell viability assay.

[5] = test system: EB-3; assay: cells; conditions: Homo sapiens;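 also: human EB-3 cells, growth inhibition read out via a cell viability assay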
Description: SANGER: Inhibition of human EB-3 cell growth in a cell viability assay.

[6] = test system: EFM-19; assay: cells; conditions: Homo sapiens;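 also: growth inhibition of human EFM-19 cells, measured in a cell viability assay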
Description: SANGER: Inhibition of human EFM-19 cell growth in a cell viability assay.

[7] = test system: EFO-27; assay: cells; conditions: Homo sapiens;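 also: growth inhibition of EFO-27 cells, read out with a cell viability assay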
Description: SANGER: Inhibition of human EFO-27 cell growth in a cell viability assay.

[8] = test system: ESS-1; assay: cells; conditions: Homo sapiens;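 also: growth inhibition of human ESS-1 cells, read out by a cell viability assay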
Description: SANGER: Inhibition of human ESS-1 cell growth in a cell viability assay.

[9] = test system: GDM-1; assay: cells; conditions: Homo sapiens;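 also: cell viability readout used to measure growth inhibition of human GDM-1 cells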
Description: SANGER: Inhibition of human GDM-1 cell growth in a cell viability assay.

[10] = test system: GP5d; assay: cells; conditions: Homo sapiens;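 also: growth inhibition of human GP5d cells, read out with a cell viability assay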
Description: SANGER: Inhibition of human GP5d cell growth in a cell viability assay.

[11] = test system: H4; assay: cells; conditions: Homo sapiens
Description: SANGER: Inhibition of human H4 cell growth in a cell viability assay.

[12] = test system: HCC1419; assay: cells; conditions: Homo sapiens;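 also: growth inhibition of human HCC1419 cells, read out as cell viability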
Description: SANGER: Inhibition of human HCC1419 cell growth in a cell viability assay.

[13] = test system: HCC1599; assay: cells; conditions: Homo sapiens;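 also: growth inhibition of HCC1599 cells, read out in a cell viability assay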
Description: SANGER: Inhibition of human HCC1599 cell growth in a cell viability assay.

[14] = test system: HCC1937; assay: cells; conditions: Homo sapiens;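 also: growth inhibition measured with a cell viability read-out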
Description: SANGER: Inhibition of human HCC1937 cell growth in a cell viability assay.

[15] = test system: HCC 2998; assay: cells; conditions: Homo sapiens;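 also: growth inhibition of human HCC2998 cells, measured with a cell viability read-out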
Description: SANGER: Inhibition of human HCC2998 cell growth in a cell viability assay.

[16] = test system: HMV-2 cell line; assay: cells; conditions: Homo sapiens;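 also: growth inhibition of HMV-II cells, read out with a cell viability assay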
Description: SANGER: Inhibition of human HMV-II cell growth in a cell viability assay.

[17] = test system: HN; assay: cells; conditions: Homo sapiens
Description: SANGER: Inhibition of human HN cell growth in a cell viability assay.

[18] = test system: HOP-92; assay: cells; conditions: Homo sapiens;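 also: cell viability readout, with IC50 reflecting inhibition of HOP-92 cell growth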
Description: SANGER: Inhibition of human HOP-92 cell growth in a cell viability assay.

[19] = test system: HSC-4; assay: cells; conditions: Homo sapiens;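 also: growth inhibition of human HSC-4 cells, read out with a cell viability assay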
Description: SANGER: Inhibition of human HSC-4 cell growth in a cell viability assay.

[20] = test system: HT-1080; assay: cells; conditions: Homo sapiens
Description: SANGER: Inhibition of human HT-1080 cell growth in a cell viability assay.

[21] = test system: HT-3; assay: cells; conditions: Homo sapiens;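 also: growth inhibition measured with a cell viability readout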
Description: SANGER: Inhibition of human HT-3 cell growth in a cell viability assay.

[22] = test system: HT55; assay: cells; conditions: Homo sapiens;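 also: cell viability readout measuring growth inhibition of human HT55 cells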
Description: SANGER: Inhibition of human HT55 cell growth in a cell viability assay.

[23] = test system: IGR-1; assay: cells; conditions: Homo sapiens;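 also: growth inhibition of human IGR-1 cells, read out with a cell viability assay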
Description: SANGER: Inhibition of human IGR-1 cell growth in a cell viability assay.

[24] = test system: IGROV-1; assay: cells; conditions: Homo sapiens;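 also: reduction of IGROV-1 cell growth, read out with a viability assay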
Description: SANGER: Inhibition of human IGROV-1 cell growth in a cell viability assay.

[25] = test system: KARPAS-422; assay: cells; conditions: Homo sapiens
Description: SANGER: Inhibition of human KARPAS-422 cell growth in a cell viability assay.

[26] = test system: KOSC-2; assay: cells; conditions: Homo sapiens;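 also: growth inhibition of KOSC-2 cells, read out by a cell viability assay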
Description: SANGER: Inhibition of human KOSC-2 cell growth in a cell viability assay.

[27] = test system: KP-4; assay: cells; conditions: Homo sapiens;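 also: human KP-4 cells, with growth inhibition read out through a cell viability assay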
Description: SANGER: Inhibition of human KP-4 cell growth in a cell viability assay.

[28] = test system: LCLC-97TM1; assay: cells; conditions: Homo sapiens;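 also: cell viability assay measuring growth inhibition of human LCLC-97TM1 cells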
Description: SANGER: Inhibition of human LCLC-97TM1 cell growth in a cell viability assay.

[29] = test system: LOUCY; assay: cells; conditions: Homo sapiens;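 also: growth inhibition of human LOUCY cells, read out with a cell viability assay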
Description: SANGER: Inhibition of human LOUCY cell growth in a cell viability assay.

[30] = test system: LoVo; assay: cells; conditions: Homo sapiens;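 also: growth inhibition of human LoVo cells, read out with a cell viability assay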
Description: SANGER: Inhibition of human LoVo cell growth in a cell viability assay.

[31] = test system: M059J; assay: cells; conditions: Homo sapiens;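 also: growth inhibition of M059J cells, read out with a cell viability assay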
Description: SANGER: Inhibition of human M059J cell growth in a cell viability assay.

[32] = test system: NCI-H1437; assay: cells; conditions: Homo sapiens;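 also: growth inhibition of human NCI-H1437 cells, read out by a cell viability assay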
Description: SANGER: Inhibition of human NCI-H1437 cell growth in a cell viability assay.

[33] = test system: NCI-H1755; assay: cells; conditions: Homo sapiens;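 also: cell viability readout used to measure growth inhibition of NCI-H1755 cells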
Description: SANGER: Inhibition of human NCI-H1755 cell growth in a cell viability assay.

[34] = test system: NCI-H2009; assay: cells; conditions: Homo sapiens;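 also: cell viability assay measuring inhibition of NCI-H2009 cell growth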
Description: SANGER: Inhibition of human NCI-H2009 cell growth in a cell viability assay.

[35] = test system: NCI-H2052; assay: cells; conditions: Homo sapiens;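 also: growth inhibition of NCI-H2052 cells, read out with a cell viability assay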
Description: SANGER: Inhibition of human NCI-H2052 cell growth in a cell viability assay.

[36] = test system: NCI-H2087; assay: cells; conditions: Homo sapiens;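 also: growth inhibition determined with a cell viability readout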
Description: SANGER: Inhibition of human NCI-H2087 cell growth in a cell viability assay.

[37] = test system: NCI-H2452; assay: cells; conditions: Homo sapiens;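 also: growth inhibition of NCI-H2452 cells, read out with a cell viability assay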
Description: SANGER: Inhibition of human NCI-H2452 cell growth in a cell viability assay.

[38] = test system: NCI-H460; assay: cells; conditions: Homo sapiens;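 also: cell viability assay scoring growth inhibition of human NCI-H460 cells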
Description: SANGER: Inhibition of human NCI-H460 cell growth in a cell viability assay.

[39] = test system: NCI-H650; assay: cells; conditions: Homo sapiens;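 also: growth inhibition of NCI-H650 cells, read out by a viability assay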
Description: SANGER: Inhibition of human NCI-H650 cell growth in a cell viability assay.

[40] = test system: OAW-42; assay: cells; conditions: Homo sapiens;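 also: growth inhibition of OAW-42 cells, read out with a cell viability assay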
Description: SANGER: Inhibition of human OAW-42 cell growth in a cell viability assay.

[41] = test system: OPM-2; assay: cells; conditions: Homo sapiens;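 also: growth of OPM-2 cells measured with a viability assay, IC50 for suppression of proliferation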
Description: SANGER: Inhibition of human OPM-2 cell growth in a cell viability assay.

[42] = test system: OVCAR-5; assay: cells; conditions: Homo sapiens;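 also: growth inhibition of human OVCAR-5 cells, read out with a cell viability assay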
Description: SANGER: Inhibition of human OVCAR-5 cell growth in a cell viability assay.

[43] = test system: PF-382; assay: cells; conditions: Homo sapiens
Description: SANGER: Inhibition of human PF-382 cell growth in a cell viability assay.

[44] = test system: RO82-W-1; assay: cells; conditions: Homo sapiens;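 also: growth inhibition of human RO82-W-1 cells, measured with a cell viability assay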
Description: SANGER: Inhibition of human RO82-W-1 cell growth in a cell viability assay.

[45] = test system: SIMA; assay: cells; conditions: Homo sapiens;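 also: growth inhibition of SIMA cells, measured with a cell viability readout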
Description: SANGER: Inhibition of human SIMA cell growth in a cell viability assay.

[46] = test system: SJRH30; assay: cells; conditions: Homo sapiens;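 also: growth inhibition of human SJRH30 cells, read out with a cell viability assay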
Description: SANGER: Inhibition of human SJRH30 cell growth in a cell viability assay.

[47] = test system: SK-MEL-24; assay: cells; conditions: Homo sapiens;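 also: growth inhibition read out by a cell viability assay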
Description: SANGER: Inhibition of human SK-MEL-24 cell growth in a cell viability assay.

[48] = test system: ST486; assay: SANGER: Inhibition of human ST486 cell growth in a cell viability assay.
[49] = test system: T84; assay: cells; conditions: Homo sapiens;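 also: growth inhibition measured with a cell viability readout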
Description: SANGER: Inhibition of human T84 cell growth in a cell viability assay.

[50] = test system: TALL-1; assay: cells; conditions: Homo sapiens;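 also: growth inhibition of cultured human TALL-1 cells, read out by a cell viability assay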
Description: SANGER: Inhibition of human TALL-1 cell growth in a cell viability assay.

[51] = test system: CWR22R; assay: cells; conditions: Homo sapiens, 22Rv1;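 also: growth inhibition of 22Rv1 cells, read out with a cell viability assay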
Description: SANGER: Inhibition of human 22RV1 cell growth in a cell viability assay.

[52] = test system: A2780; assay: cells; conditions: Homo sapiens;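 also: growth inhibition of A2780 cells, read out with a cell viability assay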
Description: SANGER: Inhibition of human A2780 cell growth in a cell viability assay.

[53] = test system: AU565; assay: cells; conditions: Homo sapiens;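 also: cell viability assay measuring growth inhibition of human AU565 cells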
Description: SANGER: Inhibition of human AU565 cell growth in a cell viability assay.

[54] = test system: BC1 cell line; assay: SANGER: Inhibition of human BC-1 cell growth in a cell viability assay.
[55] = test system: BCPAP; assay: cells; conditions: Homo sapiens;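 also: growth inhibition of BCPAP cells, read out in a cell viability assay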
Description: SANGER: Inhibition of human BCPAP cell growth in a cell viability assay.

[56] = test system: BOKU; assay: cells; conditions: Homo sapiens;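 also: growth inhibition of the human BOKU cell line, read out by a cell viability assay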
Description: SANGER: Inhibition of human BOKU cell growth in a cell viability assay.

[57] = test system: BXPC-3; assay: cells; conditions: Homo sapiens;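 also: growth inhibition of human BxPC-3 cells, read out by a cell viability assay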
Description: SANGER: Inhibition of human BxPC-3 cell growth in a cell viability assay.

[58] = test system: CAL-27; assay: cells; conditions: Homo sapiens;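 also: Viability-based readout, IC50 reflecting inhibition of CAL-27 cell growth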
Description: SANGER: Inhibition of human CAL-27 cell growth in a cell viability assay.

[59] = test system: TE-15; assay: cells; conditions: Homo sapiens;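 also: cell viability readout of growth inhibition in TE-15 cells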
Description: SANGER: Inhibition of human TE-15 cell growth in a cell viability assay.

[60] = test system: VM-CUB-1; assay: cells; conditions: Homo sapiens;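 also: cell viability assay measuring growth inhibition of the human VM-CUB-1 cell line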
Description: SANGER: Inhibition of human VM-CUB-1 cell growth in a cell viability assay.

[61] = test system: YAPC; assay: cells; conditions: Homo sapiens
Description: SANGER: Inhibition of human YAPC cell growth in a cell viability assay.

[62] = test system: COLO-679; assay: cells; conditions: Homo sapiens
Description: SANGER: Inhibition of human COLO-679 cell growth in a cell viability assay.

Compound: N#C/C(=C1/Nc2ccccc2S1)c1ccnc(NCCc2cccnc2)n1
- IC50 [1]: > 8000 nM
- IC50 [2]: > 8000 nM
- IC50 [3]: > 8000 nM
- IC50 [4]: 7080 nM
- IC50 [5]: > 8000 nM
- IC50 [6]: 5390 nM
- IC50 [7]: > 8000 nM
- IC50 [8]: 6490 nM
- IC50 [9]: > 8000 nM
- IC50 [10]: 7520 nM
- IC50 [11]: > 8000 nM
- IC50 [12]: > 8000 nM
- IC50 [13]: > 8000 nM
- IC50 [14]: 3250 nM
- IC50 [15]: 3170 nM
- IC50 [16]: 793 nM
- IC50 [17]: > 8000 nM
- IC50 [18]: > 8000 nM
- IC50 [19]: > 8000 nM
- IC50 [20]: > 8000 nM
- IC50 [21]: > 8000 nM
- IC50 [22]: > 8000 nM
- IC50 [23]: 4680 nM
- IC50 [24]: 603 nM
- IC50 [25]: > 8000 nM
- IC50 [26]: > 8000 nM
- IC50 [27]: 6430 nM
- IC50 [28]: 2120 nM
- IC50 [29]: > 8000 nM
- IC50 [30]: 2700 nM
- IC50 [31]: > 8000 nM
- IC50 [32]: 4150 nM
- IC50 [33]: > 8000 nM
- IC50 [34]: > 8000 nM
- IC50 [35]: > 8000 nM
- IC50 [36]: > 8000 nM
- IC50 [37]: > 8000 nM
- IC50 [38]: > 8000 nM
- IC50 [39]: > 8000 nM
- IC50 [40]: 7700 nM
- IC50 [41]: > 8000 nM
- IC50 [42]: > 8000 nM
- IC50 [43]: > 8000 nM
- IC50 [44]: > 8000 nM
- IC50 [45]: > 8000 nM
- IC50 [46]: > 8000 nM
- IC50 [47]: > 8000 nM
- IC50 [48]: 1740 nM
- IC50 [49]: 3860 nM
- IC50 [50]: > 8000 nM
- IC50 [51]: > 8000 nM
- IC50 [52]: > 8000 nM
- IC50 [53]: 2550 nM
- IC50 [54]: 5380 nM
- IC50 [55]: 4450 nM
- IC50 [56]: > 8000 nM
- IC50 [57]: 1860 nM
- IC50 [58]: > 8000 nM
- IC50 [59]: 2220 nM
- IC50 [60]: > 8000 nM
- IC50 [61]: > 8000 nM
- IC50 [62]: > 8000 nM

Compound: CC(O)(CS(=O)(=O)c1ccc(F)cc1)C(=O)Nc1ccc(C#N)c(C(F)(F)F)c1 (centres undefined) [BICALUTAMIDE]
- IC50 [1]: > 1020 nM
- IC50 [2]: > 1020 nM
- IC50 [3]: > 1020 nM
- IC50 [4]: > 1020 nM
- IC50 [5]: > 1020 nM
- IC50 [6]: > 1020 nM
- IC50 [7]: > 1020 nM
- IC50 [8]: > 1020 nM
- IC50 [9]: > 1020 nM
- IC50 [10]: > 1020 nM
- IC50 [11]: > 1020 nM
- IC50 [12]: > 1020 nM
- IC50 [13]: > 1020 nM
- IC50 [14]: > 1020 nM
- IC50 [15]: > 1020 nM
- IC50 [16]: > 1020 nM
- IC50 [17]: > 1020 nM
- IC50 [18]: > 1020 nM
- IC50 [19]: > 1020 nM
- IC50 [20]: > 1020 nM
- IC50 [21]: 731 nM
- IC50 [22]: > 1020 nM
- IC50 [23]: > 1020 nM
- IC50 [24]: > 1020 nM
- IC50 [25]: > 1020 nM
- IC50 [26]: > 1020 nM
- IC50 [27]: > 1020 nM
- IC50 [28]: > 1020 nM
- IC50 [29]: > 1020 nM
- IC50 [30]: > 1020 nM
- IC50 [31]: > 1020 nM
- IC50 [32]: > 1020 nM
- IC50 [33]: > 1020 nM
- IC50 [34]: > 1020 nM
- IC50 [35]: > 1020 nM
- IC50 [36]: > 1020 nM
- IC50 [37]: > 1020 nM
- IC50 [38]: > 1020 nM
- IC50 [39]: > 1020 nM
- IC50 [40]: > 1020 nM
- IC50 [41]: > 1020 nM
- IC50 [42]: > 1020 nM
- IC50 [43]: > 1020 nM
- IC50 [44]: > 1020 nM
- IC50 [45]: > 1020 nM
- IC50 [46]: > 1020 nM
- IC50 [47]: > 1020 nM
- IC50 [48]: > 1020 nM
- IC50 [49]: > 1020 nM
- IC50 [50]: > 1020 nM
- IC50 [51]: > 1020 nM
- IC50 [52]: > 1020 nM
- IC50 [53]: > 1020 nM
- IC50 [54]: > 1020 nM
- IC50 [55]: > 1020 nM
- IC50 [56]: > 1020 nM
- IC50 [57]: > 1020 nM
- IC50 [58]: > 1020 nM
- IC50 [59]: > 1020 nM
- IC50 [60]: > 1020 nM
- IC50 [61]: > 1020 nM
- IC50 [62]: > 1020 nM
